This is an account of results in patent US8017618B2, “Antifolate agent combinations in the treatment of cancer” (Tracon Pharmaceuticals, Inc., priority 2006, dated 2011).

A short description of series [1]: Oral and intravenous bioavailability study of MX via a single bolus administration to Sprague Dawley rats (plasma LC-MS/MS, noncompartmental PK). The series is classed as in vivo. The procedure: Oral and Intravenous Bioavailability Study of MX Via a Single Bolus Administration to Sprague Dawley Rats (Non-GLP). The studies described below were performed to evaluate the bioavailability of methoxyamine (MX) at the safe dose level by comparison of the pharmacokinetic parameters after single bolus oral and intravenous administrations of MX
Test Animals. Thirty male and thirty female Sprague Dawley rats, 250-350 g, 7-10 weeks of age, were used during the study.
Dose Preparation and Concentration. One dose solution was prepared on the same day of dose administration, adjusted for the 98% purity of the test article, to achieve a concentration of 4.00 mg/mL “active” MX, 816.77 mg of MX was dissolved into 5% dextrose in a 200-mL volumetric flask. The prepared solution was equally divided into two amber bottles designated for either oral or IV administration. Aliquots were taken for analysis at preparation and after dosing, transported on dry ice and stored at <−70° C.
Dose Administration. All animals were weighed on the day of dose administration. Individual animal doses were based on this body weight. A constant dose volume of 5 mL/kg was used. IV doses were administered through a single bolus injection into the tail vein using a 3-mL syringe attached to a 26G×1″ needle. The IV dose was administered at a rate of approximately 2 mL/min. Oral doses were administered as a single bolus with an 18G×2″ feeding needle attached to a 3-mL syringe.
Blood Sample Collection. Blood samples were collected at 5, 15, 30 mins, and 1, 2, 4, 6, 8, 12 and 24 hrs post-dose, with collection at two time points for each animal. Blood samples were collected through the jugular vein for the earlier time point and through the abdominal vein at sacrifice for the later time point. The blood was transferred from the drawing syringe into a 2 mL blood collection tube containing K3-EDTA as the anticoagulant and inverted to mix. Abdominal vein blood collection was performed immediately following CO2 euthanasia.
Plasma Sample Preparation and Storage Conditions. The blood tube was placed on wet ice before centrifugation for plasma preparation. Whole blood samples were centrifuged at 3,000 rpm at 4° C., for 10 min. Plasma was pipetted into tubes and placed on dry ice initially and later stored at <−70° C.
Mass spectrometry (MS). Mass spectrometric detection was performed by electrospray ionization with positive turbo spray, according to the specifications listed below.
Plasma Sample for LC-MS/MS Analysis. Individual plasma samples were thawed at ambient temperature and 250 μL was aliquoted for analysis if a dilution was not needed. Samples taken at 5 min to 1 hr from IV dosed animals or 15 min to 8 hr from orally dosed animals required 5-to 40-fold dilution to fall in the linear range of the method (1 to 1,000 ng/mL). For the samples requiring dilution, an appropriate volume was taken and mixed with blank rat plasma containing the same anticoagulant to make a total volume of 250 μL. The quantitation results were corrected with the dilution factor. Plasma was prepared for LC-MS/MS analysis as follows: • Plasma aliquots were vortexed for 30 seconds, and centrifuged at 14,000 rpm for 10 min to precipitate the interfering particles. • A 100 μL aliquot was taken from the supernatant and placed into a 1.5 mL microcentrifuge tube. • To the 100 μL plasma aliquot, 310 μL of H2O: formic acid (2:1), 30 μL of acenocoumerol (IS) in H2O (10 μg/mL) and 100 μL of diethylaminobenzaldehyde in 2:1H2O: formic acid solution (10 mg/mL) were added and mixed well. • The mixture was then incubated in a water bath at 80° C. for 2 hrs. After incubation, the supernatant was transferred into a HPLC vial for LC-MS/MS quantitation.
Methoxyamine (MX) Pharmacokinetics and Bioavailability Analysis. Pharmacokinetics Analysis. […]

The subject of a further series is NCI-H460 tumors. In words: Tumors in nude mice: NCI-H460 NSCLC cell line model. The series is classed as in vivo, female athymic HSD nude mice. To be noted: MX 4 mg/kg with pemetrexed 150 mg/kg, five daily i.p. injections. The procedure: (§1) Tumors in Nude Mice. […] Animals received five daily intraperitoneal injections of either saline, pemetrexed alone (150 mg/kg), MX alone (4 mg/kg), or a combination of pemetrexed (150 mg/kg) and MX (4 mg/kg) with a pemetrexed to MX ratio of […].

The subject of another series is topoisomerase II. Briefly: Topoisomerase II-mediated DNA cleavage of AP or MX-AP site substrates. The class given is biochemical. To be noted: AP site at a topoisomerase II cleavage site, incubated with MX. The procedure:
Analysis of the effect of AP site or MX-AP site on topoisomerase II-mediated DNA cleavage. A position-specific apurinic site was incorporated by replacing a single nucleoside with deoxyuridine at a topoisomerase II cleavage site and then removing the uracil base with uracil-DNA glycosylase, generating AP sites that further are incubated with MX to produce MX-AP sites (FIG. 5A).
First, it was determined whether APE has a differential effect between regular AP sites and MX-AP sites located in a position specific site for topo II cleavage.

The next series deals with HCT116 tumors. Briefly: Tumors in nude mice: HCT116 colon cancer cell line model. The class given is in vivo, female athymic HSD nude mice. The settings on record: MX 4 mg/kg with pemetrexed 150 mg/kg, five daily i.p. injections. On the procedure: as §1
A further series relates to H460 cells. The settings on record: for formation of AP sites: pemetrexed 100, 200 and 400 μM, 24 hours, induction proportional to dose.
[2] abbreviates: both sexes, Sprague-Dawley, rat, in vivo, po, 20 mg/kg.
[3] abbreviates: female, Sprague-Dawley, rat, in vivo, 20 mg/kg.
[4] abbreviates: female, Sprague-Dawley, rat, in vivo, iv, 20 mg/kg.
Where [5] appears, read: female, Sprague-Dawley, rat, in vivo, po, 20 mg/kg.
Setting [6] is: male, Sprague-Dawley, rat, in vivo, 20 mg/kg.
Where [7] appears, read: male, Sprague-Dawley, rat, in vivo, iv, 20 mg/kg.
The mark [8] stands for this setting: male, Sprague-Dawley, rat, in vivo, po, 20 mg/kg.

Where two headings read alike, the source gives them in different places.

Procedure for H460 cells: To determine the effect of pemetrexed+methoxyamine (MX) compared to pemetrexed alone on the number of AP sites generated, an aldehyde reactive probe (ARP) reagent was used to measure AP sites formed by pemetrexed and blocked by MX. ARP and MX have a similar reactivity with AP sites, and react specifically with an aldehyde group, an open-ring form of the AP sites. […] H460 cells were treated with pemetrexed (0, 100, 200 or 400 μm) for 24 hours. DNA (15 μg) was then extracted from cells and incubated with 1 mM ARP at 37° C. for 10 min. DNA was precipitated and washed with ethanol, then resuspended in TE buffer (10 mM Tris-HCl, pH 7.2, 1 mM EDTA) and denatured at 100° C. for 5 min. The DNA was then quickly chilled on ice and mixed with an equal amount of ammonium acetate (2 M). Single-stranded DNA was then immobilized on a nitrocellulose membrane using a vacuum filter device. The membrane was incubated with streptavidin-conjugated horseradish peroxidase at room temperature for 30 min and rinsed with washing buffer (20 mM Tris-HCl, 1 mM EDTA, 0.26 M NaCl, 1% Tween-20). ARP-AP sites were visualized with ECL reagents (Amersham, Piscataway, N.J.). […] The effect of the combination of 200 μM pemetrexed and 6 mM MX was viewed at 24 hrs, 48 hrs and 72 hrs.

Consider `CON` [MX, Methoxyamine], for which the half-life in series [1] (Sprague-Dawley, rat, in vivo, po) was over 4 h; in series [1] (both sexes, Sprague-Dawley, rat, in vivo), 4 to 6 h; in series [1] (setting [4]), 4.6 h; in series [1] (setting [5]), 5.7 h; in series [1] (setting [7]), 5.2 h; in series [1] (setting [8]), 4.2 h. Moreover, the “serum levels following oral dosing versus target Cmax associated with activity in mouse models of human cancer” value in series [1] (Sprague-Dawley, rat, in vivo, po, 20 mg/kg) is over 0.05 µg/mL. In addition, the Tmax in series [1] (setting [2]) was 0.5 to 1 h; in series [1] (setting [4]), 0.08 h; in series [1] (setting [5]), 0.5 h; in series [1] (setting [7]) it was 0.08 h; in series [1] (setting [8]) it was 1 h. The compound further displayed a bioavailability in series [1] (setting [2]) of about 100%. Besides, the “Bioavailability (absolute, oral to IV AUC0-∞5 ratio)” value in series [1] (setting [3]) came out at 94%; in series [1] (setting [6]) it was 110%. The F amounted to 0.94 in series [1] (setting [3]) and 1.1 in series [1] (setting [6]). In addition, the “distribution phase complete (time postdose)” value is reported as “approximately 2 hrs” in series [1] (female, Sprague-Dawley, rat, in vivo, iv) and “approximately 2 hrs” in series [1] (male, Sprague-Dawley, rat, in vivo, iv). Besides, the “AUC0-∞5 (AUC0-∞ normalized to a total dose amount of 5 mg MX)” value in series [1] (setting [4]) came out at 13892 ng·h/mL; in series [1] (setting [7]) it was 11284 ng·h/mL; in series [1] (setting [8]), 12420 ng·h/mL. The AUC(0-inf) in series [1] (setting [4]) worked out at 13.1 µg·h/mL; in series [1] (setting [5]), 12 µg·h/mL; in series [1] (setting [7]), 12.7 µg·h/mL; in series [1] (setting [8]), 13.8 µg·h/mL. Further, the AUC(0-t) in series [1] (setting [4]) was 13 µg·h/mL; in series [1] (setting [5]), 11.6 µg·h/mL; in series [1] (setting [7]), 12.5 µg·h/mL; in series [1] (setting [8]), 13.6 µg·h/mL. The Cmax in series [1] (setting [4]) stood at 11 µg/mL; in series [1] (setting [5]), 2.96 µg/mL; in series [1] (setting [7]), 15.5 µg/mL; in series [1] (setting [8]), 2.21 µg/mL. For the same compound, the “clinical signs of toxicity” value in series [1] (rats, 20 mg/kg body weight intravenously or orally) is reported as “no clinical signs of toxicity”. Also, the “reversal of resistance to pemetrexed chemotherapy” value in the series with NCI-H460 tumors and in the series on HCT116 tumors was “reversed resistance” each time. The “topoisomerase II-mediated cleavage of MX-AP sites” value in the series on topoisomerase II is “MX-AP sites are able to stimulate topoisomerase II-mediated DNA cleavage”.
As for `Nc1nc2[nH]cc(CCc3ccc(C(=O)N[C@@H](CCC(=O)O)C(=O)O)cc3)c2c(=O)[nH]1` [pemetrexed, 2-[4-[2-(4-amino-2-oxo-3,5,7-triazabicyclo[4.3.0]nona-3,8,10-trien-9-yl)ethyl]benzoyl]aminopentanedioic acid], the “number of detectable AP sites over time” value with H460 cells (200 μM pemetrexed, 6 mM MX, 24 hrs, 48 hrs and 72 hrs) is recorded as “number of detectable AP sites were reduced”. Further, the “formation of AP sites” value in the series on H460 cells was “induces the formation of AP sites”; with H460 cells (listed as Pemetrexed) it was “induced the formation of AP sites”.
